# US9328361B2, “Coryneform bacterium transformant and process for producing phenol using the same” (GREEN PHENOL DEVELOPMENT CO., LTD., priority 2010, dated 2016)
# Read-outs that look alike come from different tables or passages of the source.
# Columns and labels:
# [1] = test system: Corynebacterium glutamicum R; details: reducing conditions (ORP −450 mV), 8% glucose, 33° C.
# Procedure: Corynebacterium glutamicum R was applied to A agar medium and was left stand in the dark at 33° C. for 20 hours.
# An inoculation loop of the Corynebacterium glutamicum R grown on a plate as above was inoculated into a test tube containing 10 mL of A liquid medium and was aerobically cultured with shaking at 33° C. for 15 hours.
# The Corynebacterium glutamicum R grown in the above conditions was inoculated into a 2 L-conical flask containing 500 mL of A liquid medium and was aerobically cultured with shaking at 33° C. for 15 hours.
# The bacterial cells cultured and proliferated as above were collected by centrifugation (5,000×g at 4° C. for 15 minutes). The obtained bacterial cells were suspended in BT (-urea) liquid medium (0.7% ammonium sulfate, 0.05% potassium dihydrogen phosphate, 0.05% dipotassium hydrogen phosphate, 0.05% magnesium sulfate heptahydrate, 0.0006% iron sulfate heptahydrate, 0.00042% manganese sulfate hydrate, 0.00002% biotin and 0.00002% thiamine hydrochloride) so that the concentration of the bacterial cell was 10% (w/v). […] During the reaction, 2.5 N aqueous ammonia was added with the use of a pH controller (Type: DT-1023 made by Able) to avoid the pH of the reaction mixture falling below 7.0.
# [2] = test system: Corynebacterium glutamicum R; details: aerobic culture, A liquid medium, 33° C.
# Procedure: A growth inhibition test in aerobic culture was performed to examine the influence of phenol on Corynebacterium glutamicum, Escherichia coli, and Pseudomonas putida. Pseudomonas putida S12, which was used for the test, is reported to be a solvent-resistant strain. In the report, disclosed is an unparalleled technology using the strain as a host in phenol production. […]
# The Corynebacterium glutamicum R grown in the above conditions was inoculated into 100 mL of A liquid media in such a way that the initial bacterial cell concentration would be OD610=0.05, phenol was added at the same time in such a way that the final concentration would be 0, 0.16, 0.2, 0.24, or […], and aerobic culture was performed with shaking at 33° C. The growth of bacterial cells was determined by absorbance measurement at OD610.
# Pseudomonas putida F1 and S12 grown in the above conditions were each inoculated into 100 mL of LB (+glucose) liquid medium in such a way that the initial bacterial cell concentration would be OD610=0.05, phenol was added at the same time in such a way that the final concentration would be 0, 0.10, or […], and aerobic culture was performed with shaking at 30° C. The growth of bacterial cells was determined by absorbance measurement at OD610. […]
# Pseudomonas putida S12 = details: aerobic culture, LB (+glucose) liquid medium, 30° C.
# Procedure: (§1) A growth inhibition test in aerobic culture was performed to examine the influence of phenol on Corynebacterium glutamicum, Escherichia coli, and Pseudomonas putida. Pseudomonas putida S12, which was used for the test, is reported to be a solvent-resistant strain. In the report, disclosed is an unparalleled technology using the strain as a host in phenol production.
# (§2) Pseudomonas putida F1 and S12 were applied to LB agar medium (1% polypeptone, 0.5% yeast extract, 0.5% NaCl and 1.5% agar) and were left stand in the dark at 30° C. for 15 hours.
# (§3) An inoculation loop of each of Pseudomonas putida F1 and S12 was inoculated into a test tube containing 10 mL of LB (+glucose) liquid medium (1% polypeptone, 0.5% yeast extract, 0.5% NaCl and 0.4% glucose), and aerobic culture was performed with shaking at 30° C. for 13 hours.
# (§4) Pseudomonas putida F1 and S12 grown in the above conditions were each inoculated into 100 mL of LB (+glucose) liquid medium in such a way that the initial bacterial cell concentration would be OD610=0.05, phenol was added at the same time in such a way that the final concentration would be 0, 0.10, or […], and aerobic culture was performed with shaking at 30° C. The growth of bacterial cells was determined by absorbance measurement at OD610. […] The vertical axis of FIG. 1 indicates OD610.
# Pseudomonas putida F1 = details: aerobic culture, LB (+glucose) liquid medium, 30° C.
# Procedure: as §1, §2, §3, §4
# Escherichia coli JM109 = details: aerobic culture, LB liquid medium, 37° C.
# Procedure: as §1
# Escherichia coli JM109 was applied to LB agar medium (1% polypeptone, 0.5% yeast extract, 0.5% NaCl and 1.5% agar) and was left stand in the dark at 37° C. for 15 hours.
# The growth of bacterial cells was determined by absorbance measurement at OD610.
# as §4
smiles,measurement,setting,value
Oc1ccccc1 [phenol],influence on saccharide consumption,[1]; 0.24% phenol,no influence of phenol was observed
same,saccharide consumption,[1]; 0.38% phenol,saccharide consumption was observed
same,saccharide consumption,[1]; 0.46% phenol,slightly observed
same,proliferation of Corynebacterium glutamicum,[2]; 0.16% phenol,hardly affected
same,proliferation of Corynebacterium glutamicum,[2]; 0.20% phenol,favorable growth
same,proliferation of Pseudomonas putida S12,Pseudomonas putida S12; 0.10% phenol,significantly affected
same,proliferation of Pseudomonas putida S12,Pseudomonas putida S12; 0.20% phenol,completely inhibited
same,proliferation of Pseudomonas putida F1,Pseudomonas putida F1; 0.10% phenol,significantly affected
same,proliferation of Pseudomonas putida F1,Pseudomonas putida F1; 0.20% phenol,completely inhibited
same,proliferation of Escherichia coli,Escherichia coli JM109; 0.16% phenol,significantly affected
same,proliferation of Escherichia coli,Escherichia coli JM109; 0.20% phenol,completely inhibited
